Experimental data as given in patent US9504676B2, “Molecules inhibiting a metabolic pathway involving the Syk protein tyrosine kinase and method for identifying said molecules” (CENTRE NATIONAL DE LA RECHERCHE SCIENTIFIQUE, priority 2008, dated 2016).

System: BMMC cells
Experiment: C-13 toxicity test on BMMC cells (Annexin-V and Propidium Iodide)
Format: cell-based
Conditions: mouse
Procedure: FIG. 10. Toxicity test of C-13 on BMMC cells. The BMMC cells were incubated at 37° C. in the presence of 2.5 μM or 5 μM of C-13, 0.25% DMF or Staurosporine. The percentages of live BMMC cells after 3 hours and after 5 days were detected by means of double Annexin-V and Propidium Iodide labelling. The viability of BMMC cells incubated in the presence of 2.5 μM or 5 μM of C-13 or 0.25% DMF was not affected to noteworthy degree after 3 hours (78%, 74% and 79% respectively) or five days (62, 56 and 57%, respectively). On the other hand, the viability of BMMC cells treated under the same conditions with Staurosporine was reduced to a level of 16% after only 3 hours.
• 1) Chemical products and antibodies. A chemical bank of 3000 molecules (a varied subset) was acquired from ChemBridge, Inc. (San Diego, Calif.). Stocks of solutions of small molecules were prepared at a rate of 10 mM in DMSO (dimethylsulphoxide), except for C-13 (methyl 2-{5-[(3-benzyl-4-oxo-2-thioxo-1,3-thiazolidin-5-ylidene)methyl]-2-furyl}benzoate, ChemBridge ID No. 6197026) prepared in DMF (dimethylformamide). Unless specified otherwise, all the reagents were supplied by Sigma. Dinitrophenyl (DNP) hapten was acquired from Calbiochem. Sepharose GammaBind G and all the secondary antibodies were supplied by GE Health Amersham Biosciences. The anti-Syk, anti-Lyn, anti-Btk, anti-PLC-γ1, anti-PLC-γ2, anti-LAT, anti-SLP-76, anti-p38, anti-JNK, anti-Vav, anti-Akt1 and 9E10 antibodies conjugated with HRP were acquired from Santa Cruz Biotechnology. The anti-phospho-p44/42 MAP Kinase, anti-p44/42 MAP Kinase, anti-phospho-p38, anti-phospho-JNK, anti-phospho-Akt1 antibodies were acquired from Cell Signaling. The anti-phospho-LAT and anti-phospho-PLC-γ1 antibodies were supplied by Biosource and the anti-phospho-SLP-76 antibodies by BD Pharmingen. The 4G10 anti-phosphotyrosine monoclonal antibody was acquired from Upstate Biotechnology. • 2) ADA method: ELISA type high-speed molecule screening test, based on antibody displacement (WO 2005106481). The recombinant fusion protein GST:Syk 6-242^8 comprising the residues 6 to 242 of murine Syk tyrosine kinase protein illustrated in FIG. 8B (SEQ ID No. 4) was immobilised on an ELISA plate at a final concentration of 10 μg ml^−1. For the screening of the chemical molecule bank, the small molecules, diluted in PBS at a final concentration of 10 μM were added to the wells for one hour at ambient temperature, before adding the fragment scFv G4G11 at a final concentration of 100 nM for an additional hour. The binding of G4G11 with Syk was assessed by adding the 9E10 monoclonal antibody conjugated with HRP detecting the amino acid sequence EQKLISEEDLN of human c-myc protein located at the C-terminal end of the scFv fragment. To generate Syk mutants, targeted mutagenesis was used on GST:Syk 6-242 protein and the binding of G4G11 with the mutants was assessed in the presence of 5 μM of C-13. • 3) Cells, culture conditions and functional tests. Anti-DNP 2682-I mouse monoclonal antibody was used as the culture supernatant of hybridomas containing 1 μg/ml of IgE. Femoral bone marrow cells were sampled and cultured in Opti-MEM medium (Gibco) supplemented with 10% foetal calf serum and 4% X63 transfectant supernatant secreting murine IL-3. RBL-2H3 (ATCC) leukaemic rat basophil cells were maintained in a single-layer culture in RPMI 1640 medium supplemented with 10% foetal calf serum (Gibco). […]

SMILES: COC(=O)c1ccccc1-c1ccc(/C=C2/SC(=S)N(Cc3ccccc3)C2=O)o1 [Molecule C-13, methyl 2-{5-[(3-benzyl-4-oxo-2-thioxo-1,3-thiazolidin-5-ylidene)methyl]-2-furyl}benzoate]
- percentage of live BMMC cells (3 h, 2.5 μM): 78%
- percentage of live BMMC cells (3 h, 5 μM): 74%
- percentage of live BMMC cells (5 days, 2.5 μM): 62%
- percentage of live BMMC cells (5 days, 5 μM): 56%
